Measurements from patent publication US20240374631A1, “A COMPOSITION FOR IMPROVING GUT MICROBIOTA, BEHAVIOURAL PATTERN, ALPHA-SYNUCLEIN LEVELS, SLEEP PATTERN AND/OR SERUM MELATONIN” (GN Corporation Co Ltd, priority 2021, published 2024).

Test system: gut microbiota
Assay: Gut microbiome analysis (16S rRNA sequencing of fecal samples) in STAM model of NASH
Assay type: in vivo, C57BL/6J mice
Excerpt: The study is reported in accordance with Animal Research: Reporting of In Vivo Experiments (ARRIVE) guidelines. C57BL/6J mice were obtained from Japan SLC, Inc. (Japan). All animals used in this study were cared for under the following guidelines: Act on Welfare and Management of Animals (Ministry of the Environment, Japan, Act No. 105 of Oct. 1, 1973), standards relating to the care and management of laboratory animals and relief of pain (Notice No. 88 of the Ministry of the Environment, Japan, Apr. 28, 2006) and the guidelines for proper conduct of animal experiments (Science Council of Japan, Jun. 1, 2006). Protocol approvals were obtained from SMC Laboratories, Japan's IACUC (Study reference no: […] Mice were maintained in a specific pathogen-free (SPF) facility under controlled conditions of temperature (23±3° C.), humidity (50±20%), lighting (12-hour artificial light and dark cycles; light from 8:00 to 20:00) and air exchange. The STAM model of NASH was induced as previously described [D10]. Mice were given a single subcutaneous injection of 200 μg streptozotocin (STZ, Sigma-Aldrich, USA) solution 2 days after birth and fed with a high-fat diet (HFD, 57 kcal % fat, Cat #HFD32, CLEA Japan, Inc., Japan) from 4-9 weeks of age. All mice develop liver steatosis and diabetes and at […] mice had established steatohepatitis, histologically. Studygroups: There were five study groups, described below. Eight mice were included in each study group. Eight NASH mice were orally administered vehicle supplemented with AFO-202 Beta Glucan at a dose of 1 mg/kg in a volume of 5 mL/kg once daily from 6 to 9 weeks of age. Eight NASH mice were orally administered vehicle supplemented with Telmisartan at a dose of 10 mg/kg once daily from 6 to 9 weeks of age. Frequency: Fecal samples were collected at the 6 weeks of age (before administration) and 9 weeks of age (before sacrifice). Procedure: At 6 weeks of age, fecal samples were collected from each mouse by clean catch method. […] A sterile petri dish was placed on the bench. Gently massage the abdomen, position the bottom of mouse over a fresh petri dish, and collect 1-2 fecal pellets. At sacrifice, fecal samples were aseptically collected from cecum. The tubes with feces were placed on ice immediately. These tubes were snap frozen in liquid nitrogen and stored at -80° C. for shipping. In this analysis, the 16S rRNA sequence data acquired by the next-generation sequencer from the fecal […] was used to perform community analysis using the QIIME2 program for microbial community analysis. The raw read data in FASTQ format output from the next-generation sequencer was trimmed to remove adapter sequences and low QV regions that may be included in the data. Cutadapt was used to remove adapter sequences from DNA sequencing reads. Trimmomatic was used as read trimming tool for Illumina NGS data. The adapter sequence was trimmed using the adapter trimming program “cutadapt” if the Trimming of the region at the end of the read sequence overlapped the corresponding sequence by at least one base (mismatch tolerance: 20%). When reads containing N were present in at least one of Read1 and Read2, both Read1 and Read2 were removed. Trimming of low QV regions was performed on the read data after processing using the QV trimming program “Trimmomatic” under the following conditions. The window of 20 bases is slid from the 5' side, and the area where the average QV is less than 20 is trimmed. After trimming, only the reads with more than 50 bases remaining in both Read1 and Read2 were taken as output. The microbial community analysis based on 16S rRNA sequence was performed on the sequence data trimmed in the previous section using the microbial community analysis program “QIIME2”. The annotation program “sklearn” included in QIIME2 is used to annotate the ASV (OTU) sequences. […]

Compound: CCCc1nc2c(C)cc(-c3nc4ccccc4n3C)cc2n1Cc1ccc(-c2ccccc2C(=O)O)cc1 [Telmisartan]
- Abundance Lachnospiraceae/[Ruminococcus]/gnavus (post, line r79): 260
- Abundance Bacteroidaceae/Bacteroides/— (post, line r80): 1596
- Abundance S24-7/—/— (post, line r81): 125
- Abundance Lachnospiraceae/[Ruminococcus]/gnavus (post, line r83): 281
- Abundance Ruminococcaceae/Oscillospira/— (post, line r84): 393
- Abundance Alcaligenaceae/Sutterella/— (post, line r86): 63
- Abundance S24-7/—/— (post, line r87): 54
- Abundance Other/Other/Other (post, line r90): 0
- Abundance Lachnospiraceae/[Ruminococcus]/gnavus (post, line r91): 325
- Abundance S24-7/—/— (post, line r92): 153
- Abundance Rikenellaceae/—/— (post, line r93): 134
- Abundance Lachnospiraceae/[Ruminococcus]/gnavus (post, line r94): 30
- Abundance Lachnospiraceae/—/— (post, line r95): 359
- Abundance Clostridiaceae/Other/Other (post, line r96): 39
- Abundance Lachnospiraceae/—/— (post, line r97): 239
- Abundance Ruminococcaceae/Oscillospira/— (post, line r98): 138
- Abundance Enterococcaceae/Enterococcus/— (post, line r99): 0
- Abundance Rikenellaceae/—/— (post, line r100): 96
- Abundance S24-7/—/— (post, line r101): 79
- Abundance Lactobacillaceae/Lactobacillus/reuteri (post, line r102): 0
- Abundance Bacteroidaceae/Bacteroides/acidifaciens (post, line r103): 127
- Abundance Ruminococcaceae/Oscillospira/— (post, line r104): 451
- Abundance Enterobacteriaceae/Escherichia/coli (post, line r105): 0
- Abundance Ruminococcaceae/Oscillospira/— (post, line r106): 280
- Abundance —/—/— (post, line r107): 254
- Abundance S24-7/—/— (post, line r108): 92
- Abundance —/—/— (post, line r109): 0
- Abundance Other/Other/Other (post, line r110): 251
- Abundance Lachnospiraceae/—/— (post, line r111): 163
- Abundance Lachnospiraceae/[Ruminococcus]/gnavus (post, line r112): 63
- Abundance Lachnospiraceae/—/— (post, line r113): 117
- Abundance Enterobacteriaceae/Klebsiella/Other (post, line r114): 33
- Abundance Lachnospiraceae/—/— (post, line r115): 187
- Abundance —/—/— (post, line r117): 261
- Abundance Lactobacillaceae/Lactobacillus/— (post, line r118): 0
- Abundance Other/Other/Other (post, line r119): 248
- Abundance —/—/— (post, line r120): 0
- Abundance Erysipclotrichaceae/Allobaculum/— (post, line r121): 59
- Abundance —/—/— (post, line r122): 84
- Abundance Lachnospiraceae/—/— (post, line r123): 271
- Abundance —/—/— (post, line r124): 173
- Abundance Other/Other/Other (post, line r125): 269
- Abundance Lactobacillaceae/Lactobacillus/reuteri (post, line r126): 0
- Abundance Ruminococcaceae/Oscillospira/— (post, line r127): 273
- Abundance Lachnospiraceae/—/— (post, line r128): 139
- Abundance S24-7/—/— (post, line r129): 125
- Abundance S24-7/—/— (post, line r130): 111
- Abundance Lachnospiraceae/—/— (post, line r131): 119
- Abundance S24-7/—/— (post, line r133): 74
- Abundance Lachnospiraceae/—/— (post, line r134): 98
- Abundance —/—/— (post, line r135): 376
- Abundance Coriobacteriaceae/Adlercreutzia/— (post, line r136): 30
- Abundance —/—/— (post, line r137): 118
- Abundance Clostidiaceae/Other/Other (post, line r138): 0
- Abundance Turicibacteraceae/Turicibacter/— (post, line r139): 0
- Abundance Ruminococcaceae/Ruminococcus/— (post, line r140): 143
- Abundance Ruminococcaceae/Oscillospira/— (post, line r141): 119
- Abundance Dehalobacteriaceae/Dehalobacterium/— (post, line r142): 268
- Abundance Staphylococcaceae/Staphylococcus/Other (post, line r143): 34
- Abundance Rikenellaceae/—/— (post, line r144): 97
- Abundance Lachnospiraceae/—/— (post, line r145): 98
- Abundance —/—/— (post, line r146): 68
- Abundance Staphylococcaceae/Staphylococcus/sciuri (post, line r147): 41
- Abundance —/—/— (post, line r148): 0
- Abundance Ruminococcaceae/Ruminococcus/— (post, line r149): 124
- Abundance Coriobacteriaceae/Adlercreutzia/— (post, line r150): 0
- Abundance Ruminococcaceae/Oscillospira/— (post, line r151): 120
- Abundance Lachnospiraceae/Clostridium/Other (post, line r152): 40
- Abundance Lachnospiraceae/Coprococcus/— (post, line r153): 85
- Abundance Desulfovibrionaceae/—/— (post, line r154): 148
- Abundance —/—/— (post, line r155): 103
- Abundance Lachnospiraceae/—/— (post, line r156): 272
- Abundance Dehalobacteriaceae/Dehalobacterium/— (post, line r157): 239
- Abundance Coriobacteriaceae/Adlercreutzia/— (post, line r158): 0
- Abundance Lachnospiraceae/—/— (post, line r159): 119
- Abundance Lachnospiraceae/—/— (post, line r160): 14
- Abundance S24-7/—/— (post, line r162): 51
- Abundance Streptococcaceae/Streptococcus/— (post, line r163): 44
- Abundance Lachnospiraceae/[Ruminococcus]/gnavus (post, line r164): 37
- Abundance Lachnospiraceae/—/— (post, line r165): 173
- Abundance Lachnospiraceae/—/— (post, line r166): 10
- Abundance Coriobacteriaceae/Adlercreutzia/— (post, line r167): 8
- Abundance Lachnospiraceae/—/— (post, line r168): 57
- Abundance Erysipelotrichaceae/Clostridium/cocleatum (post, line r169): 119
- Abundance Lachnospiraceae/—/— (post, line r171): 81
- Abundance Bacteroidaceae/Bacteroides/— (post, line r172): 468
- Abundance Ruminococcaceae/Oscillospira/— (post, line r173): 53
- Abundance Ruminococcaceae/—/— (post, line r174): 72
- Abundance Lachnospiraceae/Other/Other (post, line r175): 90
- Abundance Lachnospiraceae/Dorea/— (post, line r176): 154
- Abundance Lachnospiraceae/—/— (post, line r177): 94
- Abundance S24-7/—/— (post, line r178): 0
- Abundance Lachnospiraceae/—/— (post, line r179): 138
- Abundance Lactobacillaceae/Lactobaccilus/Other (post, line r180): 0
- Abundance —/—/— (post, line r181): 48
- Abundance Ruminococcaceae/Oscillospira/— (post, line r182): 101
- Abundance S24-7/—/— (post, line r184): 71
- Abundance [Mogibacteriaceae]/—/— (post, line r185): 28
- Abundance Peptococcaceae/—/— (post, line r186): 42
- Abundance —/—/— (post, line r187): 40
- Abundance —/—/— (post, line r188): 213
- Abundance S24-7/—/— (post, line r189): 19
- Abundance: Ruminococcaceae, Oscillospira, — (pre (baseline), line r191): 97
- Abundance: Lachnospiraceae, [Ruminococcus], gnavus (pre (baseline), line r192): 33
